Test systems include A498; A549; ACHN; CCRF-CEM; EKVX; HCT-116; HOP-92; HT-29; MCF7; MDA-MB-231; MDA-N; NCI-H522; SF-268; SF-295; SK-MEL-28; SK-MEL-2; SK-OV-3; SN12C; SR; T47D.
Holding throughout (assay): NCI tumour cell line growth inhibition, 48 h

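Five concentrations, 48 hours, 96-well plates. GI50 marks 50% less growth.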 The source made the active and inactive calls. No stated cut-off is given here; in the data, active = GI50 up to about 1.1 µM and inactive = higher. A value given as a limit tells only on which side of the number the result lay.

As for `NC(=S)Nc1nc(=S)[nH]c2c1SC1=N/C(=C\c3ccco3)C(=O)N12`, the GI50 was > 100 µM (inactive) in the assay on A498; > 100 µM (inactive) in the assay on A549; > 100 µM (inactive) with ACHN; 38.2 µM (inactive) in the assay with CCRF-CEM; 59 µM (inactive) in the assay on EKVX; > 96.2 µM (inactive) in the assay with HCT-116. In addition, the GI50 in the assay on HOP-92 was > 100 µM (inactive); with HT-29, > 60.4 µM (inactive); with MCF7, 29.1 µM (inactive); with MDA-MB-231, > 100 µM (inactive); in the assay with MDA-N it was > 100 µM (inactive); in the assay on NCI-H522 it was 27 µM (inactive). In addition, the GI50 in the assay on SF-268 is > 100 µM (inactive); in the assay on SF-295, > 100 µM (inactive); with SK-MEL-28, > 100 µM (inactive); in the assay on SK-MEL-2, > 83.4 µM (inactive); with SK-OV-3, > 100 µM (inactive); in the assay on SN12C it was > 100 µM (inactive). The GI50 with SR is 21.1 µM (inactive); in the assay on T47D, 61.8 µM (inactive).

Regarding `CO[C@@H]1C[C@H](OC(N)=O)[C@@H]2C=C[C@@H]3/C=C(C)/C=C/[C@@H](C)[C@H](/C(C)=C/[C@@H](C)NC(C)=O)OC(=O)/C=C/C=C(C)\C=C\[C@]3(C)[C@@H]2C1` [SUPERSTOLIDE B], the GI50 in the assay on A498 is < 0.005 µM (active); in the assay with A549, < 0.005 µM (active); with ACHN, < 0.005 µM (active); in the assay with CCRF-CEM, 0.107 µM (active); with EKVX it was 0.0986 µM (active); in the assay on HCT-116, < 0.005 µM (active). The GI50 was < 0.005 µM (active) in the assay on HOP-92; < 0.005 µM (active) with HT-29; 0.00693 µM (active) with MCF7; < 0.005 µM (active) in the assay on MDA-MB-231; < 0.005 µM (active) in the assay with MDA-N; < 0.005 µM (active) with NCI-H522. The GI50 in the assay with SF-268 was 0.0724 µM (active); in the assay with SF-295, < 0.005 µM (active); in the assay on SK-MEL-28, < 0.005 µM (active); in the assay on SK-MEL-2 it was 0.319 µM (active); in the assay on SK-OV-3, < 0.005 µM (active); with SN12C, < 0.005 µM (active). Besides, the GI50 in the assay with SR and with T47D was < 0.005 µM (active) each time.

In the case of `C=C1CC2(C[C@@H](c3ccccc3)O[C@@H](c3ccccc3)C2)OC1=O` (stereo not given in full), the GI50 in the assay on A498 is 9.95 µM (inactive); in the assay on A549, 5.89 µM (inactive); in the assay on ACHN, 2.88 µM (inactive); in the assay with CCRF-CEM it was 1.71 µM (inactive); in the assay on EKVX, 13 µM (inactive); with HCT-116, 1.9 µM (inactive). The GI50 with HOP-92 is 5.22 µM (inactive); in the assay on HT-29, 2.92 µM (inactive); with MCF7, 2.13 µM (inactive); in the assay on MDA-MB-231, 2.15 µM (inactive); with MDA-N, 2.28 µM (inactive); with NCI-H522, 1.48 µM (inactive). Also, the GI50 in the assay on SF-268 was 7.31 µM (inactive); with SF-295, 13.6 µM (inactive); in the assay with SK-MEL-28, 1.86 µM (inactive); with SK-MEL-2, 3.98 µM (inactive); in the assay with SK-OV-3, 14.5 µM (inactive); in the assay on SN12C it was 3.01 µM (inactive). Moreover, the GI50 in the assay on SR is 2.3 µM (inactive); in the assay with T47D, 1.85 µM (inactive).

Regarding `CCCCCCCC(=O)OC[n+]1cccc(-c2c(COC(=O)NC(C)C)c(COC(=O)NC(C)C)c3n2CCC3)c1`, the GI50 in the assay with A498 is 35.3 µM (inactive); with A549, > 96.2 µM (inactive); in the assay with ACHN it was 34 µM (inactive); in the assay with CCRF-CEM it was 21.2 µM (inactive); in the assay on EKVX, > 100 µM (inactive); in the assay with HCT-116 it was 50 µM (inactive). Also, the GI50 was 44.8 µM (inactive) in the assay with HOP-92; > 100 µM (inactive) in the assay with HT-29; 45.6 µM (inactive) with MCF7; > 100 µM (inactive) in the assay with MDA-MB-231; > 100 µM (inactive) in the assay with MDA-N; 40.4 µM (inactive) in the assay on NCI-H522. Also, the GI50 with SF-268 is > 55.8 µM (inactive); in the assay on SF-295, > 84.1 µM (inactive); in the assay on SK-MEL-28 it was > 100 µM (inactive); in the assay with SK-MEL-2 it was > 100 µM (inactive); in the assay on SK-OV-3 it was > 100 µM (inactive); in the assay on SN12C, 48 µM (inactive). For the same compound, the GI50 is 12.8 µM (inactive) in the assay with SR and > 93.3 µM (inactive) in the assay on T47D.

Turning to `CC(C)(C)c1ccc(O)c(CN(Cc2cc(C(C)(C)C)ccc2O)c2ccccc2)c1`, the GI50 with A498 was 14.8 µM (inactive); with A549, 17.5 µM (inactive); in the assay with ACHN, 16.6 µM (inactive); with CCRF-CEM, 32.4 µM (inactive); in the assay with EKVX, 16.5 µM (inactive); with HCT-116 it was 19.4 µM (inactive). Further, the GI50 in the assay on HOP-92 is 16.2 µM (inactive); in the assay with HT-29, 18.3 µM (inactive); in the assay with MCF7, 18.8 µM (inactive); in the assay on MDA-MB-231, 16.9 µM (inactive); with MDA-N, 16.6 µM (inactive); in the assay on NCI-H522 it was 13.3 µM (inactive). For the same compound, the GI50 is 17.6 µM (inactive) in the assay on SF-268; 17.5 µM (inactive) in the assay on SF-295; 17.5 µM (inactive) in the assay on SK-MEL-28; 17.6 µM (inactive) with SK-MEL-2; 29.4 µM (inactive) in the assay with SK-OV-3; 17.7 µM (inactive) in the assay on SN12C. Also, the figures for the GI50 in the assay with SR and with T47D were 16 µM (inactive) and 15.8 µM (inactive), respectively.

Regarding `O=C(N/N=C\c1ccc([N+](=O)[O-])s1)c1ccncc1`, the GI50 was 23.4 µM (inactive) in the assay with A498; 16.7 µM (inactive) in the assay with A549; 18.3 µM (inactive) with ACHN; 6.52 µM (inactive) with CCRF-CEM; 20.7 µM (inactive) in the assay with EKVX; 5.07 µM (inactive) with HCT-116. Further, the GI50 in the assay on HOP-92 is 15.6 µM (inactive); in the assay on HT-29, 4.13 µM (inactive); with MCF7 it was 3.02 µM (inactive); in the assay with MDA-MB-231 it was 18.8 µM (inactive); in the assay with MDA-N it was 14.1 µM (inactive); in the assay on NCI-H522, 4.75 µM (inactive). In addition, the GI50 is 13.6 µM (inactive) in the assay on SF-268; 16.4 µM (inactive) in the assay on SF-295; 35.3 µM (inactive) in the assay with SK-MEL-28; 18.2 µM (inactive) in the assay on SK-MEL-2; 38.5 µM (inactive) in the assay with SK-OV-3; 8.65 µM (inactive) with SN12C. Moreover, the GI50 is 5.65 µM (inactive) in the assay on SR and 21.2 µM (inactive) with T47D.

Take `COC(=O)C(=O)C(C(=O)C(=O)Nc1ccc(C)c(C)c1)c1nc2ccc([N+](=O)[O-])cc2nc1O` (stereo not given): the GI50 is > 100 µM (inactive) in the assay with A498; > 100 µM (inactive) in the assay with A549; > 100 µM (inactive) with ACHN; > 100 µM (inactive) in the assay on CCRF-CEM; 99.5 µM (inactive) with EKVX; > 100 µM (inactive) in the assay with HCT-116. For the same compound, the GI50 with HOP-92 is > 100 µM (inactive); in the assay on HT-29, > 100 µM (inactive); in the assay with MCF7, > 100 µM (inactive); in the assay on MDA-MB-231, > 100 µM (inactive); in the assay on MDA-N, > 100 µM (inactive); with NCI-H522, 48.4 µM (inactive). Moreover, the GI50 in the assay on SF-268, with SF-295, with SK-MEL-28, with SK-MEL-2, in the assay with SK-OV-3 and with SN12C was > 100 µM (inactive) throughout. Also, the GI50 in the assay with SR and in the assay on T47D was > 100 µM (inactive) throughout.

On to `Nc1nc(SCC(=O)O)nc(O)c1N`, for which the GI50 in the assay on A498 was > 100 µM (inactive); in the assay with A549, > 100 µM (inactive); in the assay on ACHN it was > 100 µM (inactive); in the assay on CCRF-CEM it was 1.32 µM (inactive); in the assay on EKVX it was > 100 µM (inactive); with HCT-116, 35.6 µM (inactive). Further, the GI50 in the assay on HOP-92 is > 100 µM (inactive); in the assay with HT-29 it was > 100 µM (inactive); in the assay on MCF7 it was > 100 µM (inactive); with MDA-MB-231 it was > 100 µM (inactive); with MDA-N it was 33.2 µM (inactive); with NCI-H522, > 100 µM (inactive). The GI50 was > 100 µM (inactive) in the assay with SF-268; > 100 µM (inactive) with SF-295; > 100 µM (inactive) with SK-MEL-28; > 100 µM (inactive) in the assay on SK-MEL-2; > 100 µM (inactive) with SK-OV-3; 13.3 µM (inactive) in the assay on SN12C. For the same compound, the GI50 in the assay on SR is 22.6 µM (inactive); in the assay on T47D, > 100 µM (inactive).

For `Fc1ccc(Nc2nc(Cl)c3nc[nH]c3n2)cc1Cl`, the GI50 with A498 is > 100 µM (inactive); in the assay on A549 it was > 100 µM (inactive); in the assay on ACHN it was 34.9 µM (inactive); with CCRF-CEM it was > 100 µM (inactive); in the assay on EKVX, 67.8 µM (inactive); in the assay on HCT-116, > 100 µM (inactive). Moreover, the GI50 was > 100 µM (inactive) in the assay with HOP-92; > 100 µM (inactive) in the assay with HT-29; 98.9 µM (inactive) in the assay on MCF7; > 100 µM (inactive) in the assay on MDA-MB-231; > 100 µM (inactive) in the assay on MDA-N; 43.5 µM (inactive) in the assay with NCI-H522. Also, the GI50 was 35.6 µM (inactive) with SF-268; > 100 µM (inactive) in the assay with SF-295; > 100 µM (inactive) in the assay on SK-MEL-28; > 100 µM (inactive) in the assay on SK-MEL-2; 87.1 µM (inactive) with SK-OV-3; > 100 µM (inactive) with SN12C. Further, the GI50 is 86.1 µM (inactive) in the assay with SR and 38.5 µM (inactive) with T47D.

On to `CC1=C(CCC(C)CO)O[C@H]2C[C@H]3[C@@H]4CC[C@H]5C[C@@H](O)CC[C@]5(C)[C@H]4CC(=O)[C@]3(C)[C@@H]12` (stereo not given in full), for which the GI50 with A498 is 20.3 µM (inactive); in the assay with A549, 13.8 µM (inactive); with ACHN it was 17.5 µM (inactive); in the assay with CCRF-CEM it was 4.89 µM (inactive); with EKVX, 29.9 µM (inactive); in the assay on HCT-116, 17.5 µM (inactive). In addition, the GI50 is 23.9 µM (inactive) in the assay on HOP-92; 13.7 µM (inactive) in the assay on HT-29; 23.6 µM (inactive) in the assay with MCF7; 18.1 µM (inactive) in the assay on MDA-MB-231; 15.6 µM (inactive) in the assay on MDA-N; 9.62 µM (inactive) in the assay with NCI-H522. The GI50 is 19.1 µM (inactive) in the assay with SF-268; 1.27 µM (inactive) in the assay with SF-295; 22.1 µM (inactive) in the assay on SK-MEL-28; 11.7 µM (inactive) with SK-MEL-2; 0.442 µM (active) in the assay with SK-OV-3; 18.9 µM (inactive) in the assay on SN12C. Further, the GI50 in the assay with SR is 13.4 µM (inactive); in the assay with T47D, 7.03 µM (inactive).

For the origin of these results see ChEMBL document CHEMBL1201862, “PubChem BioAssay data set” (2004).
